Results reported in PubChem BioAssay (NCI).
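In this assay, cells in 96-well plates receive the compound at five concentrations for 48 hours. Endpoints are linearly interpolated between the surrounding concentrations. Definition used: TGI = concentration required for complete inhibition of growth.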

Columns and labels:
Assay in all cases: NCI anticancer screen, dose series, 48 h
ACHN renal = tested on: ACHN renal
CCRF-CEM leukemia = tested on: CCRF-CEM leukemia
HCT-116 colon = tested on: HCT-116 colon
M14 melanoma = tested on: M14 melanoma
NCI-H226 lung = tested on: NCI-H226 lung
RXF 393 renal = tested on: RXF 393 renal
SK-MEL-2 melanoma = tested on: SK-MEL-2 melanoma
SN12C renal = tested on: SN12C renal
SR leukemia = tested on: SR leukemia
UACC-62 melanoma = tested on: UACC-62 melanoma
MDA-MB-435 = tested on: MDA-MB-435

SMILES | TGI (ACHN renal) [µM] | TGI (CCRF-CEM leukemia) [µM] | TGI (HCT-116 colon) [µM] | TGI (M14 melanoma) [µM] | TGI (NCI-H226 lung) [µM] | TGI (RXF 393 renal) [µM] | TGI (SK-MEL-2 melanoma) [µM] | TGI (SN12C renal) [µM] | TGI (SR leukemia) [µM] | TGI (UACC-62 melanoma) [µM] | TGI (MDA-MB-435) [µM]
COC(=O)C12Oc3ccc(-c4ccc5c(c4O)C(=O)C4=CCC(C)C(O)C4(C(=O)OC)O5)c(O)c3C(=O)C1=CCC(C)C2O (stereo unspecified) | 3.21 | 9.26 | 2.15 | 3.46 | 3.77 | 3.03 | 2.82 | 5.46 | > 100 | 2.82 | –
Cc1ccc2c(=O)cc(-c3csc4ccccc34)[nH]c2n1 | 12.9 | 1.59 | 9.38 | 0.031 | 0.0863 | – | – | 10.9 | 0.142 | > 76.8 | < 0.01
COc1ccc2c(c1)O[C@@H]1C(O)Oc3cc(OC)c(OC)cc3[C@]1(O)C2=O (stereo partly specified) | > 100 | > 100 | > 100 | > 100 | 83.9 | > 100 | > 100 | > 100 | – | > 100 | > 100
COc1ccc(N[C@H](CS(=O)c2ccc(C)cc2)c2ccc(F)cc2)cc1 (stereo partly specified) | > 100 | > 100 | > 100 | > 100 | – | > 100 | > 100 | > 100 | – | > 100 | > 100
CCCCOC(=O)CNC(=O)OCCCCC#CC#CCCCCOC(=O)NCC(=O)OCCCC | > 100 | > 100 | > 100 | > 100 | > 100 | – | – | > 100 | > 100 | > 100 | –
O=C(NCCN(CCNC(=O)c1cccc(=O)n1O)CCN(CCNC(=O)c1cccc(=O)n1O)CCNC(=O)c1cccc(=O)n1O)c1cccc(=O)n1O | > 100 | > 100 | > 100 | > 100 | > 100 | > 100 | > 100 | > 100 | – | > 100 | > 100
Cc1c(C)c(C)c(-n2[nH]c(=O)n(C)c2=O)c(C)c1C | > 100 | > 100 | > 100 | > 100 | > 100 | – | > 100 | > 100 | > 100 | > 100 | > 100
Cc1ccc(C)n2c1nc1ccc3ccccc3c12 | > 100 | > 100 | – | > 100 | > 100 | > 100 | – | > 100 | > 100 | > 100 | > 100
CCC(C)[C@H](NC(=O)N[C@H](C)c1ccccc1)C(=O)OC (stereo partly specified) | > 100 | > 100 | > 100 | > 100 | > 100 | – | > 100 | > 100 | > 100 | > 100 | > 100
O=C(c1ccc(Cl)cc1)c1ccc(OCC(=O)N2CCN(c3ccccc3)CC2)cc1 | > 100 | > 100 | > 100 | > 100 | > 100 | > 100 | > 100 | > 100 | > 100 | > 100 | –
c1ccc2c(-c3cnc(-c4c[nH]c5ccccc45)cn3)c[nH]c2c1 | > 100 | – | 94.2 | > 100 | – | > 100 | > 100 | > 100 | > 100 | > 100 | 78.5
COC1C(O)CC(OC2C(C)OC(Oc3cc(O)c4c(O)c5c(cc4c3)C[C@@H]([C@H](OC)C(=O)[C@@H](O)[C@@H](C)O)[C@H](OC3CC(OC4CC(OC6CC(C)(O)C(O)C(C)O6)C(O)C(C)O4)C(O)C(C)O3)C5=O)CC2OC(C)=O)OC1C (stereo partly specified) | > 100 | > 100 | > 100 | – | > 100 | – | > 100 | > 100 | > 100 | > 100 | > 100
CC(=O)C1CC(C)=CCC12C(=O)Nc1ccccc12 (stereo unspecified) | > 100 | > 100 | > 100 | > 100 | > 100 | 68.9 | > 100 | > 100 | – | > 100 | –
COc1ccc(N(C(=O)Nc2ccc(Cl)c(Cl)c2)c2ccccc2)cc1 | > 10 | > 10 | > 10 | > 10 | > 10 | > 10 | – | > 10 | > 10 | > 10 | > 10
O=c1[nH]nc(Cc2ccccc2)n1/N=C/c1c[nH]c2ccccc12 | > 100 | > 100 | > 100 | > 100 | > 100 | – | > 100 | > 100 | > 100 | > 100 | > 100
CN(C)C(=S)N/N=C\C=N/NC(=S)N(C)C | – | – | > 100 | 3.22 | > 81.9 | – | > 100 | 11.1 | – | 22 | > 100
COc1cccc2cc(C)c(C(=O)c3ccccc3)nc12 | > 100 | > 100 | > 100 | > 100 | > 100 | > 100 | > 100 | > 100 | – | > 100 | –
Cc1cn(C2CC(n3cc(Cn4cc(F)c(=O)[nH]c4=O)nn3)C(CO)O2)c(=O)[nH]c1=O (stereo unspecified) | > 100 | > 100 | > 100 | > 100 | > 100 | > 100 | > 100 | > 100 | – | > 100 | > 100
CCN1CC(C)Cn2c(=O)[nH]c3cc(Br)cc1c32 (stereo unspecified) | > 100 | > 100 | > 100 | > 100 | > 100 | 37.3 | > 100 | > 100 | – | > 100 | 9.74
C=CC(=O)N1C/C(=C\c2ccc(N(C)C)cc2)C(=O)/C(=C/c2ccc(N(C)C)cc2)C1 | > 100 | – | > 100 | > 100 | > 100 | > 100 | > 100 | > 100 | – | > 100 | > 100
COc1cc(OC)c2c(O)cc(CC(C)O)cc2c1 (stereo unspecified) | > 100 | > 100 | > 100 | > 100 | – | > 100 | > 100 | > 100 | > 100 | > 100 | –
